Source: ChEMBL document CHEMBL4420075, “Seriniquinones, melanoma-specific anticancer agents” (2016)

What was measured:
Format in all cases: functional
A549 = experiment: Growth inhibition of human A549/ATCC cells assessed as cell growth incubated for 48 hrs by sulforhodamine B assay; set-up: concentration or dose not given beside the values
MOLT-4 = experiment: Growth inhibition of human MOLT4 cells assessed as cell growth incubated for 48 hrs by sulforhodamine B assay; set-up: concentration or dose not given beside the values
KM12 = experiment: Growth inhibition of human KM12 cells assessed as cell growth incubated for 48 hrs by sulforhodamine B assay; set-up: concentration or dose not given beside the values
UACC-257 = experiment: Growth inhibition of human UACC257 cells assessed as cell growth incubated for 48 hrs by sulforhodamine B assay; set-up: concentration or dose not given beside the values
SK-MEL-28 = experiment: Growth inhibition of human SK-MEL-28 cells assessed as cell growth incubated for 48 hrs by sulforhodamine B assay; set-up: concentration or dose not given beside the values
SF-295 = experiment: Growth inhibition of human SF295 cells assessed as cell growth incubated for 48 hrs by sulforhodamine B assay; set-up: concentration or dose not given beside the values
OVCAR-8 = experiment: Growth inhibition of human OVCAR8 cells assessed as cell growth incubated for 48 hrs by sulforhodamine B assay; set-up: concentration or dose not given beside the values
HL-60(TB) = experiment: Growth inhibition of human HL-60(TB) cells assessed as cell growth incubated for 48 hrs by sulforhodamine B assay; set-up: concentration or dose not given beside the values
NCI-H522 = experiment: Growth inhibition of human NCI-H522 cells assessed as cell growth incubated for 48 hrs by sulforhodamine B assay; set-up: concentration or dose not given beside the values
CCRF-CEM = experiment: Growth inhibition of human CCRF-CEM cells assessed as cell growth incubated for 48 hrs by sulforhodamine B assay; set-up: concentration or dose not given beside the values
SK-MEL-2 = experiment: Growth inhibition of human SK-MEL-2 cells assessed as cell growth incubated for 48 hrs by sulforhodamine B assay; set-up: concentration or dose not given beside the values
OVCAR-3 = experiment: Growth inhibition of human OVCAR3 cells assessed as cell growth incubated for 48 hrs by sulforhodamine B assay; set-up: concentration or dose not given beside the values
UO-31 = experiment: Growth inhibition of human UO31 cells assessed as cell growth incubated for 48 hrs by sulforhodamine B assay; set-up: concentration or dose not given beside the values
NCI/ADR-RES = experiment: Growth inhibition of human NCI/ADR-RES cells assessed as cell growth incubated for 48 hrs by sulforhodamine B assay; set-up: concentration or dose not given beside the values
OVCAR-5 = experiment: Growth inhibition of human OVCAR5 cells assessed as cell growth incubated for 48 hrs by sulforhodamine B assay; set-up: scale not given: the % may be the effect or the level left
MDA-MB-231 = experiment: Growth inhibition of human MDA-MB-231 cells assessed as cell growth incubated for 48 hrs by sulforhodamine B assay; set-up: concentration or dose not given beside the values
BT-549 = experiment: Growth inhibition of human BT549 cells assessed as cell growth incubated for 48 hrs by sulforhodamine B assay; set-up: concentration or dose not given beside the values
SR = experiment: Growth inhibition of human SR cells assessed as cell growth incubated for 48 hrs by sulforhodamine B assay; set-up: concentration or dose not given beside the values
Hs-578T = experiment: Growth inhibition of human Hs 578T cells assessed as cell growth incubated for 48 hrs by sulforhodamine B assay; set-up: concentration or dose not given beside the values
MDA-MB-435 = experiment: Growth inhibition of human MDA-MB-435 cells assessed as cell growth incubated for 48 hrs by sulforhodamine B assay; set-up: concentration or dose not given beside the values
786-0 = experiment: Growth inhibition of human 786-0 cells assessed as cell growth incubated for 48 hrs by sulforhodamine B assay; set-up: concentration or dose not given beside the values
SK-OV-3 = experiment: Growth inhibition of human SKOV3 cells assessed as cell growth incubated for 48 hrs by sulforhodamine B assay; set-up: concentration or dose not given beside the values
CAKI-1 = experiment: Growth inhibition of human Caki1 cells assessed as cell growth incubated for 48 hrs by sulforhodamine B assay; set-up: concentration or dose not given beside the values
HCC 2998 = experiment: Growth inhibition of human HCC2998 cells assessed as cell growth incubated for 48 hrs by sulforhodamine B assay; set-up: concentration or dose not given beside the values
SF-539 = experiment: Growth inhibition of human SF539 cells assessed as cell growth incubated for 48 hrs by sulforhodamine B assay; set-up: scale not given: the % may be the effect or the level left
LOX IMVI = experiment: Growth inhibition of human LOXIMVI cells assessed as cell growth incubated for 48 hrs by sulforhodamine B assay; set-up: concentration or dose not given beside the values
NCI-H23 = experiment: Growth inhibition of human NCI-H23 cells assessed as cell growth incubated for 48 hrs by sulforhodamine B assay; set-up: concentration or dose not given beside the values
HCT-15 = experiment: Growth inhibition of human HCT15 cells assessed as cell growth incubated for 48 hrs by sulforhodamine B assay; set-up: scale not given: the % may be the effect or the level left
OVCAR-4 = experiment: Growth inhibition of human OVCAR4 cells assessed as cell growth incubated for 48 hrs by sulforhodamine B assay; set-up: concentration or dose not given beside the values
MCF7 = experiment: Growth inhibition of human MCF7 cells assessed as cell growth incubated for 48 hrs by sulforhodamine B assay; set-up: concentration or dose not given beside the values
UACC-62 = experiment: Growth inhibition of human UACC62 cells assessed as cell growth incubated for 48 hrs by sulforhodamine B assay; set-up: concentration or dose not given beside the values
IGROV-1 = experiment: Growth inhibition of human IGROV1 cells assessed as cell growth incubated for 48 hrs by sulforhodamine B assay; set-up: scale not given: the % may be the effect or the level left
Malme-3M = experiment: Growth inhibition of human MALME-3M cells assessed as cell growth incubated for 48 hrs by sulforhodamine B assay; set-up: scale not given: the % may be the effect or the level left
RPMI-8226 = experiment: Growth inhibition of human RPMI8226 cells assessed as cell growth incubated for 48 hrs by sulforhodamine B assay; set-up: concentration or dose not given beside the values
NCI-H322M = experiment: Growth inhibition of human NCI-H322M cells assessed as cell growth incubated for 48 hrs by sulforhodamine B assay; set-up: scale not given: the % may be the effect or the level left
COLO 205 = experiment: Growth inhibition of human COLO205 cells assessed as cell growth incubated for 48 hrs by sulforhodamine B assay; set-up: concentration or dose not given beside the values
SW-620 = experiment: Growth inhibition of human SW620 cells assessed as cell growth incubated for 48 hrs by sulforhodamine B assay; set-up: concentration or dose not given beside the values
RXF 393 = experiment: Growth inhibition of human RXF393 cells assessed as cell growth incubated for 48 hrs by sulforhodamine B assay; set-up: concentration or dose not given beside the values
NCI-H226 = experiment: Growth inhibition of human NCI-H226 cells assessed as cell growth incubated for 48 hrs by sulforhodamine B assay; set-up: concentration or dose not given beside the values
SN12C = experiment: Growth inhibition of human SN12C cells assessed as cell growth incubated for 48 hrs by sulforhodamine B assay; set-up: concentration or dose not given beside the values
HOP-62 = experiment: Growth inhibition of human HOP62 cells assessed as cell growth incubated for 48 hrs by sulforhodamine B assay; set-up: concentration or dose not given beside the values
MDA-MB-468 = experiment: Growth inhibition of human MDA-MB-468 cells assessed as cell growth incubated for 48 hrs by sulforhodamine B assay; set-up: concentration or dose not given beside the values
A498 = experiment: Growth inhibition of human A498 cells assessed as cell growth incubated for 48 hrs by sulforhodamine B assay; set-up: concentration or dose not given beside the values
ACHN = experiment: Growth inhibition of human ACHN cells assessed as cell growth incubated for 48 hrs by sulforhodamine B assay; set-up: scale not given: the % may be the effect or the level left
SF-268 = experiment: Growth inhibition of human SF268 cells assessed as cell growth incubated for 48 hrs by sulforhodamine B assay; set-up: concentration or dose not given beside the values
PC-3 = experiment: Growth inhibition of human PC3 cells assessed as cell growth incubated for 48 hrs by sulforhodamine B assay; set-up: concentration or dose not given beside the values
SNB-75 = experiment: Growth inhibition of human SNB75 cells assessed as cell growth incubated for 48 hrs by sulforhodamine B assay; set-up: concentration or dose not given beside the values
SK-MEL-5 = experiment: Growth inhibition of human SK-MEL-5 cells assessed as cell growth incubated for 48 hrs by sulforhodamine B assay; set-up: concentration or dose not given beside the values
NCI-H460 = experiment: Growth inhibition of human NCI-H460 cells assessed as cell growth incubated for 48 hrs by sulforhodamine B assay; set-up: concentration or dose not given beside the values
T47D = experiment: Growth inhibition of human T47D cells assessed as cell growth incubated for 48 hrs by sulforhodamine B assay; set-up: concentration or dose not given beside the values
SNB-19 = experiment: Growth inhibition of human SNB19 cells assessed as cell growth incubated for 48 hrs by sulforhodamine B assay; set-up: concentration or dose not given beside the values
U-251 = experiment: Growth inhibition of human U251 cells assessed as cell growth incubated for 48 hrs by sulforhodamine B assay; set-up: concentration or dose not given beside the values
TK-10 = experiment: Growth inhibition of human TK10 cells assessed as cell growth incubated for 48 hrs by sulforhodamine B assay; set-up: concentration or dose not given beside the values
M14 = experiment: Growth inhibition of human M14 cells assessed as cell growth incubated for 48 hrs by sulforhodamine B assay; set-up: concentration or dose not given beside the values
DU-145 = experiment: Growth inhibition of human DU145 cells assessed as cell growth incubated for 48 hrs by sulforhodamine B assay; set-up: concentration or dose not given beside the values
HOP-92 = experiment: Growth inhibition of human HOP92 cells assessed as cell growth incubated for 48 hrs by sulforhodamine B assay; set-up: concentration or dose not given beside the values
HCT-116 = experiment: Growth inhibition of human HCT116 cells assessed as cell growth incubated for 48 hrs by sulforhodamine B assay; set-up: concentration or dose not given beside the values
HT-29 = experiment: Growth inhibition of human HT-29 cells assessed as cell growth incubated for 48 hrs by sulforhodamine B assay; set-up: concentration or dose not given beside the values
K562 = experiment: Growth inhibition of human K562 cells assessed as cell growth incubated for 48 hrs by sulforhodamine B assay; set-up: concentration or dose not given beside the values

Compound: O=C([O-])CCc1ccc2c(=O)c3sc4c(=O)c5ccccc5c(=O)c4c3c(=O)c2c1.[Na+]
- Activity (A549): -52.48%
- Activity (MOLT-4): -18.02%
- Activity (KM12): -4.86%
- Activity (UACC-257): -93.7%
- Activity (SK-MEL-28): -86.88%
- Activity (SF-295): -92.24%
- Activity (OVCAR-8): -11.99%
- Activity (HL-60(TB)): -1.51%
- Activity (NCI-H522): -56.08%
- Activity (CCRF-CEM): -11.89%
- Activity (SK-MEL-2): -61.62%
- Activity (OVCAR-3): -20.41%
- Activity (UO-31): -62.16%
- Activity (NCI/ADR-RES): -16.65%
- Activity (OVCAR-5): -91.27%
- Activity (MDA-MB-231): 7.51%
- Activity (BT-549): -93.17%
- Activity (SR): -13.25%
- Activity (Hs-578T): -2.26%
- Activity (MDA-MB-435): -79.57%
- Activity (786-0): -36.85%
- Activity (SK-OV-3): -20.08%
- Activity (CAKI-1): -11.28%
- Activity (HCC 2998): -78.44%
- Activity (SF-539): -99.93%
- Activity (LOX IMVI): -79.48%
- Activity (NCI-H23): -48.38%
- Activity (HCT-15): -51.47%
- Activity (OVCAR-4): 3.01%
- Activity (MCF7): -42.17%
- Activity (UACC-62): -86.72%
- Activity (IGROV-1): -45.75%
- Activity (Malme-3M): -95.72%
- Activity (RPMI-8226): -23.33%
- Activity (NCI-H322M): -96.32%
- Activity (COLO 205): -95.3%
- Activity (SW-620): -35.47%
- Activity (RXF 393): -40.51%
- Activity (NCI-H226): -50.22%
- Activity (SN12C): -86.04%
- Activity (HOP-62): -94.95%
- Activity (MDA-MB-468): -23.55%
- Activity (A498): -94.19%
- Activity (ACHN): 3.07%
- Activity (SF-268): -4.66%
- Activity (PC-3): 4.12%
- Activity (SNB-75): -92.01%
- Activity (SK-MEL-5): -98.11%
- Activity (NCI-H460): -47.6%
- Activity (T47D): 30.96%
- Activity (SNB-19): -46.21%
- Activity (U-251): -19.72%
- Activity (TK-10): -13.65%
- Activity (M14): -92.46%
- Activity (DU-145): -94.06%
- Activity (HOP-92): 21.71%
- Activity (HCT-116): -11.85%
- Activity (HT-29): -35.38%
- Activity (K562): 1.66%
